This note sets out measurements from patent US9006450B2 (Boehringer Ingelheim International GmbH, priority 2010, dated 2015).

The target in this experiment is T1, human ACC2 (Homo sapiens, UniProt O00763).
T1 construct: made in house; host or cells: insect cells (baculoviral expression system)
T1 sequence (O00763 129-2458 limits assumed): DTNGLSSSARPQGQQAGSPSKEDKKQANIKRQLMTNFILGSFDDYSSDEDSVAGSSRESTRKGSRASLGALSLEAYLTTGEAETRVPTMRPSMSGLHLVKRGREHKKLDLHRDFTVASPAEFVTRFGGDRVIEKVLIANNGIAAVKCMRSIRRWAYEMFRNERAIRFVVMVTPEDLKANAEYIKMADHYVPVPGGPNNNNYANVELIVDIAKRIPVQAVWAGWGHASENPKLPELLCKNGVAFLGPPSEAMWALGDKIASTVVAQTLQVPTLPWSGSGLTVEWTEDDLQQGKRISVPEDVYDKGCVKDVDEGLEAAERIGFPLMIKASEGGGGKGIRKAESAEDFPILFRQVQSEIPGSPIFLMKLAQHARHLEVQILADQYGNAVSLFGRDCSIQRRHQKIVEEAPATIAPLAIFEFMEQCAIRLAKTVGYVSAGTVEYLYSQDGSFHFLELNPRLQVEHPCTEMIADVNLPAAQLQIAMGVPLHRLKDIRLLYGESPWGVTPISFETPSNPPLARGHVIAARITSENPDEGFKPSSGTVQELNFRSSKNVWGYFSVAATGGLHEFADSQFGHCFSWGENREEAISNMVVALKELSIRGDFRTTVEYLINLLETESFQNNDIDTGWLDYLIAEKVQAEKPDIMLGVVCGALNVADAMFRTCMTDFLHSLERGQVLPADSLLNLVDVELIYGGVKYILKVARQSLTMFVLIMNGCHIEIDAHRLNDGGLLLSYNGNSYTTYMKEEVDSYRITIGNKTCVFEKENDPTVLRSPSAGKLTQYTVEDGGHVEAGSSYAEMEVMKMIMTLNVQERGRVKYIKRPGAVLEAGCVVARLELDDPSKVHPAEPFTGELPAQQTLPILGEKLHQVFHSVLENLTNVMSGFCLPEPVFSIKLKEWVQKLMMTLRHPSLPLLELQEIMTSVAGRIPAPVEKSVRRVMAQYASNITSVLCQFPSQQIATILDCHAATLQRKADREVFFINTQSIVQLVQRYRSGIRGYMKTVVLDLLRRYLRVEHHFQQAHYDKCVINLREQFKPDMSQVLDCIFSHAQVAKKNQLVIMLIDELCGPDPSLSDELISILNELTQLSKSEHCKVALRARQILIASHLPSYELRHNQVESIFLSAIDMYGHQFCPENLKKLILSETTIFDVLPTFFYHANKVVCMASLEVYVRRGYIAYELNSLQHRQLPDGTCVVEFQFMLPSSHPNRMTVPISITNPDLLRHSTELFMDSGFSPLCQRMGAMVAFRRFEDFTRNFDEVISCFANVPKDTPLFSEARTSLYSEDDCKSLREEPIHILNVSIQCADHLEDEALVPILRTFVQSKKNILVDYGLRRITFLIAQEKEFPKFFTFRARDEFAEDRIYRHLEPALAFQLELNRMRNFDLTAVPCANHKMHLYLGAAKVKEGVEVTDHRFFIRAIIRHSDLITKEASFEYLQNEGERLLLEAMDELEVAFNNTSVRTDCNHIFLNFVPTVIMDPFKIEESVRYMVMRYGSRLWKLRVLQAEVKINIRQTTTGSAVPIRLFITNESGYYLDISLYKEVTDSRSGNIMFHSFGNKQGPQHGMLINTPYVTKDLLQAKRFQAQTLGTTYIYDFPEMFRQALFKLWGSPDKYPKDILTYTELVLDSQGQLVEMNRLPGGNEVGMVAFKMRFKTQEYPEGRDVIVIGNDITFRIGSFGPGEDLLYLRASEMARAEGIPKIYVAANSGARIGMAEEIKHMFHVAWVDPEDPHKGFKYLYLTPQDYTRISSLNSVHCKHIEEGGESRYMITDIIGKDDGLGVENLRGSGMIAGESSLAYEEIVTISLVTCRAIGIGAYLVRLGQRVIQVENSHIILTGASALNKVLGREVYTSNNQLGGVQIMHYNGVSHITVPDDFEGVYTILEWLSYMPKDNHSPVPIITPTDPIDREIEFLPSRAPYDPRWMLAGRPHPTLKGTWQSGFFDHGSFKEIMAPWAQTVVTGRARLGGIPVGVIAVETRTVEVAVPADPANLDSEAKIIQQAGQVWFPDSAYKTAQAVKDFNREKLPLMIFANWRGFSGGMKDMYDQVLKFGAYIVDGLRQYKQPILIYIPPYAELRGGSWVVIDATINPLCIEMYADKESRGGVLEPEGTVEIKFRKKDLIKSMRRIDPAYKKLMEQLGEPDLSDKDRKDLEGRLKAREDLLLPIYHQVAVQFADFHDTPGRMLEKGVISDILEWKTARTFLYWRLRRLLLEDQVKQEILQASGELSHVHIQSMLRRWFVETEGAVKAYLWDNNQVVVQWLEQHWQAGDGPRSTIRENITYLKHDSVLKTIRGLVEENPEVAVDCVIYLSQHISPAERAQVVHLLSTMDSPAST
In words: ACC2 assay, spectrophotometric 384 well assay (NADH-linked, coupled lactate dehydrogenase/pyruvate kinase). It counts as biochemical. The note with it: ACC2 assay, hACC2 construct lacking 128 N-terminal amino acids, 25° C., 340 nm; read-out: IC50. The method in brief: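 Human ACC2 lacking N-terminal 128 aa, baculovirus/insect-cell expressed, anion-exchange purified; 100 mM Tris pH 7.5, 10 mM citrate, 25 mM KHCO3, 1% DMSO. Started with 200 μM NADH and acetyl-CoA plus 500 μM ATP; PK/LDH-coupled A340 decrease read 15 min at 25° C. IC50 by nonlinear fit of low-control-subtracted slopes.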
For `COC1CN(c2nccc(N3CCC(c4ccc([C@H](C)NC(C)=O)cc4)CC3)n2)C1` [Example 11.80], the IC50 came out at 2300 nM.
Take `COC1CCN(c2cc(N3CCC(c4ccc([C@H](C)NC(C)=O)cc4)CC3)ncn2)CC1` [Example 11.81]: the IC50 was found to be 2300 nM.
Next, `CC(=O)N[C@@H](C)c1ccc(C2CCN(c3cc(N(C)Cc4ccccc4)ncn3)CC2)cc1` [Example 11.82]: 870 nM.
Then `CC(=O)N[C@@H](C)c1ccc(C2CCN(c3ccnc(N(C)Cc4ccccc4)n3)CC2)cc1` [Example 11.83], with 410 nM; and `CNc1nccc(N2CCC(c3ccc([C@H](C)NC(C)=O)cc3)CC2)n1` [Example 11.84], with 6500 nM.
Then `CNc1cc(N2CCC(c3ccc([C@H](C)NC(C)=O)cc3)CC2)ncn1` [Example 11.85], with 13900 nM; and `CC(=O)N[C@@H](C)c1ccc(C2CCN(c3ccnc(N(C)C4CC4)n3)CC2)cc1` [Example 11.86], with 770 nM; and `CC(=O)N[C@@H](C)c1ccc(C2CCN(c3cc(N(C)C4CC4)ncn3)CC2)cc1` [Example 11.87], with 790 nM.
In the case of `CC(=O)N[C@@H](C)c1ccc(C2CCN(c3ccnc(N4Cc5ccccc5C4)n3)CC2)cc1` [Example 11.88], the IC50 amounted to 1600 nM.
Next, `CC(=O)N[C@@H](C)c1ccc(C2CCN(c3cc(N4Cc5ccccc5C4)ncn3)CC2)cc1` [Example 11.89]: 760 nM; `CC(=O)N[C@@H](C)c1ccc(C2CCN(c3ccnc(N(C)CC4CC4)n3)CC2)cc1` [Example 11.90]: 230 nM.
Next, `CC(=O)N[C@@H](C)c1ccc(C2CCN(c3cc(N(C)CC4CC4)ncn3)CC2)cc1` [Example 11.91]: 440 nM.
`CC(=O)N[C@@H](C)c1ccc(C2CCN(c3cc(N4CCC5(CC5)C4)ncn3)CC2)cc1` [Example 11.92]: the IC50 is 320 nM.
Take `CC(=O)N[C@@H](C)c1ccc(C2CCN(c3ccnc(N4CCC5(CC5)C4)n3)CC2)cc1` [Example 11.93]: the IC50 was determined as 550 nM.
Next, `CC(=O)N[C@@H](C)c1ccc(C2CCN(c3ccnc(NCC4CCC4)n3)CC2)cc1` [Example 11.94]: 1700 nM; `CC(=O)N[C@@H](C)c1ccc(C2CCN(c3cc(NCC4CCC4)ncn3)CC2)cc1` [Example 11.95]: 2000 nM; `CC(=O)N[C@@H](C)c1ccc(C2CCN(c3ccnc(N(C)C4CCCC4)n3)CC2)cc1` [Example 11.96]: 350 nM.
Next, `CC(=O)N[C@@H](C)c1ccc(C2CCN(c3cc(N(C)C4CCCC4)ncn3)CC2)cc1` [Example 11.97]: 330 nM; `CC(=O)N[C@@H](C)c1ccc(C2CCN(c3ccnc(N4CCC4)n3)CC2)cc1` [Example 11.98]: 660 nM; `CC(=O)N[C@@H](C)c1ccc(C2CCN(c3cc(N4CCC4)ncn3)CC2)cc1` [Example 11.99]: 2500 nM.
With `CC(=O)N[C@@H](C)c1ccc(C2CCN(c3ccnc(NCc4ccoc4)n3)CC2)cc1` [Example 11.100], the IC50 stood at 5200 nM.
Then `CC(=O)N[C@@H](C)c1ccc(C2CCN(c3cc(NCc4ccoc4)ncn3)CC2)cc1` [Example 11.101], with 4000 nM; and `CC(=O)N[C@@H](C)c1ccc(C2CCN(c3ccnc(NCCF)n3)CC2)cc1` [Example 11.102], with 3200 nM.
Next, `CC(=O)N[C@@H](C)c1ccc(C2CCN(c3cc(NC4CCCC4)ncn3)CC2)cc1` [Example 11.103]: 2600 nM; `CC(=O)N[C@@H](C)c1ccc(C2CCN(c3ccnc(N(C)C)n3)CC2)cc1` [Example 11.104]: 600 nM; `CC(=O)N[C@@H](C)c1ccc(C2CCN(c3cc(N(C)C)ncn3)CC2)cc1` [Example 11.105]: 1700 nM.
Next, `CC(=O)N[C@@H](C)c1ccc(C2CCN(c3ccnc(NCCC4CC4)n3)CC2)cc1` [Example 11.106]: 1600 nM; `CC(=O)N[C@@H](C)c1ccc(C2CCN(c3cc(NCCC4CC4)ncn3)CC2)cc1` [Example 11.107]: 2400 nM.
For `CC(=O)N[C@@H](C)c1ccc(C2CCN(c3cc(OCC4CC4)ncn3)CC2)cc1` [Example 11.108], the IC50 worked out at 110 nM.
Regarding `CC(=O)N[C@@H](C)c1ccc(C2CCN(c3cc(OC4CCC4)ncn3)CC2)cc1` [Example 11.109], the IC50 worked out at 80 nM.
Then `CC(=O)N[C@@H](C)c1ccc(C2CCN(c3ccnc(OC4CCC4)n3)CC2)cc1` [Example 11.110], with 230 nM.
Regarding `CC(=O)N[C@@H](C)c1ccc(C2CCN(c3ccnc(NCC4CC4)n3)CC2)cc1` [Example 11.111], the IC50 came to 640 nM.
Regarding `CC(=O)N[C@@H](C)c1ccc(C2CCN(c3cc(NCC4CC4)ncn3)CC2)cc1` [Example 11.112], the IC50 is 1100 nM.
As for `CC(=O)N[C@@H](C)c1ccc(C2CCN(c3cc(N4CCCC4)ncn3)CC2)cc1` [Example 11.113], the IC50 worked out at 200 nM.
Then `CC(=O)N[C@@H](C)c1ccc(C2CCN(c3ccnc(N4CCCC4)n3)CC2)cc1` [Example 11.114], with 180 nM; and `CC(=O)N[C@@H](C)c1ccc(C2CCN(c3ccnc(NC4CC4)n3)CC2)cc1` [Example 11.115], with 1500 nM; and `CC(=O)N[C@@H](C)c1ccc(C2CCN(c3cc(O)ncn3)CC2)cc1` [Example 11.116], with 14500 nM.
Consider `CC(=O)N[C@@H](C)c1ccc(C2CCN(c3ccnc(Nc4cncnc4)n3)CC2)cc1` [Example 11.117], for which the IC50 was determined as 4300 nM.
Then `CC(=O)N[C@@H](C)c1ccc(C2CCN(c3ccnc(Oc4ccccc4)n3)CC2)cc1` [Example 11.119], with 240 nM; and `C[C@H](NC(=O)C1CC1)c1ccc(C2CCN(c3nc(Oc4ccc(F)cc4)ncc3F)CC2)cc1` [Example 11.120], with 280 nM; and `C[C@H](NC(=O)C1CC1)c1ccc(C2CCN(c3nc(N4CCCC4)ncc3F)CC2)cc1` [Example 11.121], with 470 nM.
Next, `C[C@H](NC(=O)C1CC1)c1ccc(C2CCN(c3nc(N4CCCC4)ncc3C#N)CC2)cc1` [Example 11.122]: 1400 nM; `C[C@H](NC(=O)C1CC1)c1ccc(C2CCN(c3ncnc(N4CCCC4)c3F)CC2)cc1` [Example 11.123]: 200 nM; `C[C@H](NC(=O)C1CC1)c1ccc(C2CCN(c3nc(OC4CCC4)ncc3F)CC2)cc1` [Example 11.124]: 880 nM.
As to `C[C@H](NC(=O)C1CC1)c1ccc(C2CCN(c3nc(N(C)CC4CC4)ncc3F)CC2)cc1` [Example 11.125], the IC50 came to 340 nM.
Next, `C[C@H](NC(=O)C1CC1)c1ccc(C2CCN(c3nc(N(C)CC4CC4)ncc3C#N)CC2)cc1` [Example 11.126]: 810 nM; `C[C@H](NC(=O)C1CC1)c1ccc(C2CCN(c3ncc(C#N)c(N(C)CC4CC4)n3)CC2)cc1` [Example 11.127]: 3500 nM.
Then `C[C@H](NC(=O)C1CC1)c1ccc(C2CCN(c3ncnc(N(C)CC4CC4)c3F)CC2)cc1` [Example 11.128], with 410 nM; and `CC(C)Oc1ncc(F)c(N2CCC(c3ccc([C@H](C)NC(=O)C4CC4)cc3)CC2)n1` [Example 11.129], with 1300 nM.
Then `CC(C)Oc1ncnc(N2CCC(c3ccc([C@H](C)NC(=O)C4CC4)cc3)CC2)c1F` [Example 11.130], with 370 nM; and `CC(=O)N[C@@H](C)c1ccc(C2CCN(c3ccnc(OCC4CC4)n3)CC2)cc1` [Example 11.131], with 1100 nM; and `CC(=O)N[C@@H](C)c1ccc(C2CCN(c3cc(NC4CC4)ncn3)CC2)cc1` [Example 11.132], with 3000 nM.
On to `CC(=O)NC(C)Cc1ccc(C2CCN(c3ccnc(N(C)C4CCCC4)n3)CC2)cc1` (stereo not shown) [Example 12.1, N-[2-(4-{1-[2-(Cyclopentyl-methyl-amino)-pyrimidin-4-yl]-piperidin-4-yl}-phenyl)-1-methyl-ethyl]-acetamide], for which the IC50 was 610 nM.
Next, `CCCOc1ccc(N2CCC(c3ccc([C@H](C)NC(C)=O)cc3)CC2)c(C#N)c1` [Example 13.1, (S)—N-(1-{4-[1-(2-Cyano-4-propoxy-phenyl)-piperidin-4-yl]-phenyl}-ethyl)-acetamide]: 90 nM; `CC(=O)N[C@@H](C)c1ccc(C2CCN(c3ccc(OCC4CC4)cc3C#N)CC2)cc1` [Example 13.2]: 130 nM; `CCOc1ccc(N2CCC(c3ccc([C@H](C)NC(C)=O)cc3)CC2)c(C#N)c1` [Example 13.3]: 170 nM.
Next, `CCOc1ccc(N2CCC(c3ccc([C@H](C)NC(=O)NC)cc3)CC2)cc1` [Example 14.1, (S)-1-(1-{4-[1-(4-Ethoxy-phenyl)-piperidin-4-yl]-phenyl}-ethyl)-3-methyl-urea]: 470 nM.
Then `CCNC(=O)N[C@@H](C)c1ccc(C2CCN(c3ccc(OCC)cc3)CC2)cc1` [Example 14.2], with 2700 nM.
Regarding `CCOc1ccc(N2CCC(c3ccc([C@H](C)NC(=O)NC4CC4)cc3)CC2)cc1` [Example 14.3], the IC50 is 1400 nM.
For `CCOc1ccc(N2CCC(c3ccc([C@H](C)NC(N)=O)cc3)CC2)cc1` [Example 14.5], the IC50 was determined as 1700 nM.
For `CCOc1ccc(N2CCC(c3ccc([C@H](C)NC(=O)N(C)C4CC4)cc3)CC2)cc1` [Example 14.50, (S)-1-Cyclopropyl-3-(1-{4-[1-(4-ethoxy-phenyl)-piperidin-4-yl]-phenyl}-ethyl)-1-methylurea], the IC50 came out at 3800 nM.
As for `CCOc1ccc(N2CCC(c3ccc([C@H](C)NC(=O)N(C)CC)cc3)CC2)cc1` [Example 14.51], the IC50 was 610 nM.
On to `CCOc1ccc(N2CCC(c3ccc([C@H](C)NC(=O)N(C)C(C)C)cc3)CC2)cc1` [Example 14.53], for which the IC50 is 4900 nM.
For `CCCN(C)C(=O)N[C@@H](C)c1ccc(C2CCN(c3ccc(OCC)cc3)CC2)cc1` [Example 14.54], the IC50 was 1100 nM.

The term IC50 denotes the concentration that gives 50% inhibition.
